How the values were obtained:
[1] = Open-label 8-week escitalopram treatment trial, depressive symptoms by MADRS; type: in vivo, human; conditions: escitalopram 10-20 mg daily, week 8
Text: 95 participants were included in this study. Data were collected as part of the CAN-BIND 1 project (Lam et al., 2016). Participants were outpatients aged 18-60 years of age, and met DSM-IV-TR (2000) criteria for major depressive episode (MDE) in MDD, confirmed by the Mini international Neuropsychiatric inventory (MINI) (Sheehan et al., 1998). Data were gathered across four study sites: University Health Network, Centre for Addiction and Mental Health in Toronto, Queen's University in Kingston, Ontario, Canada, and University of British Columbia in Vancouver, British Columbia, Canada. Study procedures were approved by research ethics institutional review boards at each site. All participants signed written informed consent prior to participation. At study enrollment, all participants were experiencing a MDE duration≥3 months with a Montgomery Asberg Depression Rating Scale (MAD RS) score≥24. All participants were free of psychotropic medications for at least 5 half-lives before baseline Visit 1. Participants were excluded if they had: 1) any Axis I diagnosis other than MDD, that was considered the primary diagnosis; 2) diagnosis of Bipolar Disorder Type I or II; 3) a significant Axis II diagnosis (borderline, antisocial); 4) high suicidal risk, 5) substance dependence/abuse in the past 6 months; 6) presence of significant neurological disorders, 7) head trauma, or 8) other unstable medical condition. Exclusionary criteria related to the medications included: having failed four or more adequate pharmacological interventions, having started psychological treatment within the past 3 months with the intent of continuing the treatment, previously having failed escitalopram treatment or showing intolerance to escitalopram, and being at risk for hypomanic switch (i.e. with a history of antidepressant induced hypomania). In addition, female participants who were pregnant or breastfeeding were excluded. […] The study period was eight weeks and participants were assessed with MADRS every 2 weeks starting from before administration of study medication (baseline). […]

[2] = Resting-state eyes closed EEG multi-scale entropy (MSE) during escitalopram treatment; type: in vivo, human
Experimental: Subjects were instructed to sit quietly in a testing room, while 8 minute of resting-state eyes closed EEG were recorded. Subjects were instructed to remain still, reduce eye blinks or movement to a minimum, and refrain from falling asleep.
Data were imported into MATLAB (The Math Works. Inc. Natick, MA, USA) for preprocessing. The open source EEGLAB toolbox version 12.0 (Delorme and Makeig, 2004) were used for data import. The EEG signals were epoched into segments of two seconds duration. Then a standardized custom-made and stream-lined open source software develop by our team, EEGERP toolbox (http:www.tmseeg.com/multisiteprojects), was used to preprocess the data in 6 steps as described elsewhere (Farzan et al., 2017). All data were brought down to sampling rate of 512 Hz for consistency across all sites, and average re-referenced in the final preprocessing step.
MSE was examined identical to a prior publication (Farzan et al., Brain 2016). […] First, for a given time series {xi,x2, . . . xN}, the multiple coarse-grained time series {y1^(τ), y2^(τ), . . . , yN^(τ)} at scale factor τ were calculated by averaging the data points within non-overlapping windows of increasing length τ. Each element of the coarse-grained time series yj^(τ), was calculated according to the equation:
[formula] […] Second, the degree of predictability was measured for each of the multiple coarse-grained time series {y1^(τ), y2^(τ), . . . , yN^(τ)} using SampleEn. SampleEn was calculated according to the equation: SampleEn(r,m,M)=−In(C(m+1)/C(m)) (2) where C(m) is the total number of pairs of in consecutive similar data points, C(m+1) is the total number of pairs of m+1 consecutive similar data points in the multiple coarse-grained time series. SampleEn quantifies the variability of time series by estimating the predictability of amplitude patterns across a time series. […] MSE was calculated for a 30 second continuous epoch.” […]

[3] = six months of treatment; specifically in younger adults; cited from earlier work

Structure (SMILES) | MADRS Post Week8 (mean +/− std) ([1]; All Groups (n = 95)) | MADRS Post Week8 (mean +/− std) ([1]; Non-responders (n = 50)) | MADRS Post Week8 (mean +/− std) ([1]; Responders (n = 45)) | Change in MSE pre (baseline) to post treatment (week 8) ([2]; non-responders) | Change in MSE at week 2 relative to pre treatment (baseline) ([2]; non-responders, scale factor>18, lateral frontal, fronto-temporal, parieto-occipital regions, clusters p<0.05) | Change in MSE pre (baseline) to post treatment (week 8) ([2]; responders, fronto-parietal brain regions, cluster p=0.09) | Effect on excess complexity (Lempel-Ziv Complexity) in depression [3]
CN(C)CCC[C@@]1(c2ccc(F)cc2)OCc2cc(C#N)ccc21 [Escitalopram] | 15.4 +/− 9.7 | 22.3 +/− 7.18 | 7.62 +/− 5.24 | No significant changes | reduction of MSE in coarse time-scales | reduction of MSE in fine time-scales | –
CN1CCN2c3ncccc3Cc3ccccc3C2C1 (stereo not shown) [mirtazapine] | – | – | – | – | – | – | normalized the excess complexity in depression

Reference: patent publication US12082933B2, “Methods of using brain temporal dynamics” (priority 2016, dated 2024)
